Test results: ChEMBL document CHEMBL4418315, “Atg7 inhibitors and the uses thereof” (2018)

These compounds were tested against T1, Ubiquitin-like modifier-activating enzyme ATG7 (Homo sapiens, UniProt O95352) (assay: Inhibition of recombinant His-tagged human ATG7 incubated for 105 mins in presence of GST-tagged ATG3 and Flag-tagged Gabarap and measured after 2 hrs by FRET assay).
T1 sequence (O95352 whole entry): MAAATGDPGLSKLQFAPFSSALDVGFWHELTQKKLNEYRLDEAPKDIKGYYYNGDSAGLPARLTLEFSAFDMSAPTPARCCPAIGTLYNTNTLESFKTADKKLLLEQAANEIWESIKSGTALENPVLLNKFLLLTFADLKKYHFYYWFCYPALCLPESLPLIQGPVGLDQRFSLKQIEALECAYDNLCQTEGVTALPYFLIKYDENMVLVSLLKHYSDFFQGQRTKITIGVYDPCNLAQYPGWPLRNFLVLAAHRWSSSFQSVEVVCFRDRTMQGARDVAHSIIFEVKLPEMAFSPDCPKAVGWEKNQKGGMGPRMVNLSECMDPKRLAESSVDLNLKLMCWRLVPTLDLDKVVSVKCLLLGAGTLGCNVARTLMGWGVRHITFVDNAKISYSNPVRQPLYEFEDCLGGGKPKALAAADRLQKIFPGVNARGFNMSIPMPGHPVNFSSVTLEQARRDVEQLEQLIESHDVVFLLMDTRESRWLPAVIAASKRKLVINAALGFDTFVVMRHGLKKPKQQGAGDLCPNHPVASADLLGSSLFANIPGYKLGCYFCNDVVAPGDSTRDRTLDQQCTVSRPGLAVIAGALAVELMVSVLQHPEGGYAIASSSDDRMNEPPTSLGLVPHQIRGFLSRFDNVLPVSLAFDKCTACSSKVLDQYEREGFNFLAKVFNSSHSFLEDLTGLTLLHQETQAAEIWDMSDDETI

SMILES | IC50
CCc1nn([C@H]2C[C@H](O)[C@H](COS(N)(=O)=O)O2)c2ncnc(N)c12 | > 500 nM
Nc1ncnc2c1c(SCCO)nn2[C@@H]1O[C@H](COS(N)(=O)=O)[C@@H](O)[C@@H]1F | 20 to 50 nM

What follows are compounds tested against T2, Ubiquitin-like modifier-activating enzyme ATG7 (Homo sapiens) (UniProt O95352) (assay: Inhibition of recombinant His-tagged human ATG7 at 0.111 uM incubated for 105 mins in presence of GST-tagged ATG3 and Flag-tagged Gabarap and measured after 2 hrs by FRET assay relative to control).
T2 sequence (whole entry): T1 sequence (O95352 whole entry)

SMILES | inhibition
CC[C@@H](C)Sc1nn([C@@H]2O[C@H](COS(N)(=O)=O)[C@@H](O)[C@@H]2F)c2ncnc(N)c12 | 63%
Nc1ncnc2c1cnn2[C@H]1C[C@H](O)[C@H](COS(N)(=O)=O)O1 | 5%
CC[C@H](C)Sc1nn([C@@H]2O[C@H](COS(N)(=O)=O)[C@@H](O)[C@@H]2F)c2ncnc(N)c12 | 61%
Cc1ccc(Sc2nn([C@H]3C[C@H](O)[C@@H](COS(N)(=O)=O)O3)c3ncnc(N)c23)c(F)c1 | 59 to 64%
